From ChEMBL document CHEMBL1147787, “Synthesis and preliminary antitumor activity evaluation of a DHA and doxorubicin conjugate” (Bioorg Med Chem Lett, 2006)
Activity calls are given as the source filed them. No cut-off for these calls is given here.

How the values were obtained:
L1210 = test: Antitumor activity against mouse L1210 cell line assessed as inhibition of [3H]thymidine incorporation; assay type: functional, cell-based
Mus musculus [1] = test: Antitumor activity in BDF1 mouse bearing L1210 leukemia assessed as increase in life span at 32 ug/kg, ip relative to control; assay type: functional
Mus musculus [2] = test: Antitumor activity in BDF1 mouse bearing L1210 leukemia assessed as survival for 30 days at 8 ug/kg, ip; assay type: functional, organism-based
Mus musculus [3] = test: Antitumor activity in BDF1 mouse bearing L1210 leukemia assessed as increase in life span at 16 ug/kg, ip relative to control; assay type: functional
Mus musculus [4] = test: Antitumor activity in BDF1 mouse bearing L1210 leukemia assessed as increase in life span at 8 ug/kg, ip relative to control; assay type: functional
Mus musculus [5] = test: Antitumor activity in BDF1 mouse bearing L1210 leukemia assessed as loss of body weight at 16 ug/kg, ip; assay type: functional
Mus musculus [6] = test: Antitumor activity in BDF1 mouse bearing B16 melanoma assessed as loss of body weight at 20 mg/kg, ip; assay type: functional; conditions: route intraperitoneal
Mus musculus [7] = test: Antitumor activity in BDF1 mouse bearing L1210 leukemia assessed as loss of body weight at 8 ug/kg, ip; assay type: functional
Mus musculus [8] = test: Antitumor activity in BDF1 mouse bearing B16 melanoma assessed as loss of body weight at 30 mg/kg, ip; assay type: functional; conditions: route intraperitoneal
Mus musculus [9] = test: Antitumor activity in BDF1 mouse bearing B16 melanoma assessed as inhibition of tumor growth at 20 mg/kg, ip relative to control; assay type: functional; conditions: route intraperitoneal
Mus musculus [10] = test: Antitumor activity in BDF1 mouse bearing L1210 leukemia assessed as survival for 30 days at 32 ug/kg, ip; assay type: functional, organism-based
Mus musculus [11] = test: Antitumor activity in BDF1 mouse bearing B16 melanoma assessed as inhibition of tumor growth at 30 mg/kg, ip relative to control; assay type: functional; conditions: route intraperitoneal
Mus musculus [12] = test: Antitumor activity in BDF1 mouse bearing L1210 leukemia assessed as loss of body weight at 32 ug/kg, ip; assay type: functional
Mus musculus [13] = test: Antitumor activity in BDF1 mouse bearing L1210 leukemia assessed as survival for 30 days at 5 ug/kg, ip; assay type: functional, organism-based
Mus musculus [14] = test: Antitumor activity in BDF1 mouse bearing B16 melanoma assessed as loss of body weight at 5 mg/kg, ip; assay type: functional; conditions: route intraperitoneal
Mus musculus [15] = test: Antitumor activity in BDF1 mouse bearing B16 melanoma assessed as inhibition of tumor growth at 5 mg/kg, ip relative to control; assay type: functional; conditions: route intraperitoneal
Mus musculus [16] = test: Antitumor activity in BDF1 mouse bearing L1210 leukemia assessed as increase in life span at 5 ug/kg, ip relative to control; assay type: functional
Mus musculus [17] = test: Antitumor activity in BDF1 mouse bearing L1210 leukemia assessed as loss of body weight at 5 ug/kg, ip; assay type: functional

Row | Structure (SMILES) | IC50 (L1210) | Activity (Mus musculus [1]) | Activity (Mus musculus [2]) | Activity (Mus musculus [3]) | Activity (Mus musculus [4]) | Activity (Mus musculus [5]) | Activity (Mus musculus [6]) | Activity (Mus musculus [7]) | Activity (Mus musculus [8]) | inhibition in vivo at 20 mg/kg (Mus musculus [9]) | Activity (Mus musculus [10]) | inhibition in vivo at 30 mg/kg (Mus musculus [11]) | Activity (Mus musculus [12]) | Activity (Mus musculus [13]) | Activity (Mus musculus [14]) | inhibition in vivo at 5 mg/kg (Mus musculus [15]) | Activity (Mus musculus [16]) | Activity (Mus musculus [17])
1 | CC/C=C/C/C=C/C/C=C/C/C=C/C/C=C/C/C=C/CCC(=O)N/N=C(\CO)[C@]1(O)Cc2c(O)c3c(c(O)c2[C@@H](OC2C[C@H](N)[C@H](O)[C@H](C)O2)C1)C(=O)c1c(OC)cccc1C3=O.Cl (stereo partly specified) | 1400 nM | 80% | inactive | 107% | 53% | -4% | -6% | -2% | -6% | 53% | inactive | 70% | -11% | – | – | – | – | –
2 | COc1cccc2c1C(=O)c1c(O)c3c(c(O)c1C2=O)C[C@@](O)(C(=O)CO)C[C@@H]3O[C@H]1C[C@H](N)[C@H](O)[C@H](C)O1 [DOXORUBICIN] | 150 nM | – | inactive | – | – | – | – | -19% | – | – | – | – | – | inactive | -10% | 35% | 53% | -7%
